“Also recorded” adds a separate entry of the source. Read-outs that look alike come from different tables or passages of the source.
Key:
PR (h) = biological target: T1, PR (h) (Homo sapiens, UniProt P06401); assay: PR (h) (agonist radioligand) binding assay; conditions: 1.0E−05M
T1 construct: T47D cells (cytosol)
T1 sequence (P06401 679-933): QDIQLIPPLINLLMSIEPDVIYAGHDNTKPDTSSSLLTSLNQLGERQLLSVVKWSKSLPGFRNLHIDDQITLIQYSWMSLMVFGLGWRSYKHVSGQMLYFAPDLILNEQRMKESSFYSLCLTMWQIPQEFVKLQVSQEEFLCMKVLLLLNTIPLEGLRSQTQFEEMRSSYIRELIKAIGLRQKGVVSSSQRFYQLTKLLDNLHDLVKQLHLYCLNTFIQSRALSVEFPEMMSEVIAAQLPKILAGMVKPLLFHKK

MAO-A = MAO-A (Rattus norvegicus, UniProt P21396); assay: MAO-A (antagonist radioligand) binding assay; conditions: 1.0E−05M
[1] = biological target: enzyme and uptake assay panel targets (Table 36) (Homo sapiens, UniProt P14780); assay: biochemical; assay type: biochemical; conditions: MMP-9 (h); 1.0E−05M; flag INTER: Test compound interferes with the assay detection method
[2] = biological target: enzyme and uptake assay panel targets (Table 36) (Homo sapiens, UniProt P08473); assay: biochemical; assay type: biochemical; conditions: Peptidase, Metalloproteinase, Neutral Endopeptidase; 1.0E−05M
[3] = biological target: enzyme and uptake assay panel targets (Table 36) (Homo sapiens, UniProt P35354); assay: biochemical; assay type: biochemical; conditions: COX2(h); 1.0E−05M
[4] = biological target: enzyme and uptake assay panel targets (Table 36) (Homo sapiens, UniProt P28482); assay: biochemical; assay type: biochemical; conditions: ERK2 (h) (P42^mapk); 1.0E−05M
[5] = biological target: enzyme and uptake assay panel targets (Table 36) (Homo sapiens, UniProt O76074); assay: biochemical; assay type: biochemical; conditions: PDE5 (h) (non-selective); 1.0E−05M
[6] = system: T2, enzyme and uptake assay panel targets (Table 36); assay: biochemical; assay type: biochemical; conditions: ATPase (Na+/K+); 1.0E−05M
T2 construct: other: ATPase (Na+/K+); 1.0E−05M; nH; porcine cerebral cortex

[7] = biological target: enzyme and uptake assay panel targets (Table 36) (Human immunodeficiency virus type 1 group M subtype B, UniProt P04585); assay: biochemical; assay type: biochemical; conditions: HIV-1 protease; 1.0E−05M
[8] = biological target: enzyme and uptake assay panel targets (Table 36) (Homo sapiens, UniProt P56817); assay: biochemical; assay type: biochemical; conditions: BACE-1 (h) (β-secretase); 1.0E−05M; flag INTER: Test compound interferes with the assay detection method
[9] = biological target: enzyme and uptake assay panel targets (Table 36) (Homo sapiens, UniProt P03956); assay: biochemical; assay type: biochemical; conditions: MMP-1 (h); 1.0E−05M; flag INTER: Test compound interferes with the assay detection method
[10] = biological target: enzyme and uptake assay panel targets (Table 36) (Homo sapiens, UniProt P23219); assay: biochemical; assay type: biochemical; conditions: COX1(h); 1.0E−05M
5-HT2B (h) = 5-HT2B (h) (Homo sapiens, UniProt P41595); assay: 5-HT2B (h) (agonist radioligand) binding assay; conditions: 1.0E−05M
human hepatocytes = assay type: in vitro ADME
[11] = read-out: % Inhibition of Control Specific Binding 1st
[12] = read-out: % Inhibition of Control Specific Binding 2nd
[13] = read-out: % Inhibition of Control Specific Binding Mean

enzyme and uptake assay panel targets (Table 36) (Homo sapiens, UniProt P08473), sequence (P08473 whole entry): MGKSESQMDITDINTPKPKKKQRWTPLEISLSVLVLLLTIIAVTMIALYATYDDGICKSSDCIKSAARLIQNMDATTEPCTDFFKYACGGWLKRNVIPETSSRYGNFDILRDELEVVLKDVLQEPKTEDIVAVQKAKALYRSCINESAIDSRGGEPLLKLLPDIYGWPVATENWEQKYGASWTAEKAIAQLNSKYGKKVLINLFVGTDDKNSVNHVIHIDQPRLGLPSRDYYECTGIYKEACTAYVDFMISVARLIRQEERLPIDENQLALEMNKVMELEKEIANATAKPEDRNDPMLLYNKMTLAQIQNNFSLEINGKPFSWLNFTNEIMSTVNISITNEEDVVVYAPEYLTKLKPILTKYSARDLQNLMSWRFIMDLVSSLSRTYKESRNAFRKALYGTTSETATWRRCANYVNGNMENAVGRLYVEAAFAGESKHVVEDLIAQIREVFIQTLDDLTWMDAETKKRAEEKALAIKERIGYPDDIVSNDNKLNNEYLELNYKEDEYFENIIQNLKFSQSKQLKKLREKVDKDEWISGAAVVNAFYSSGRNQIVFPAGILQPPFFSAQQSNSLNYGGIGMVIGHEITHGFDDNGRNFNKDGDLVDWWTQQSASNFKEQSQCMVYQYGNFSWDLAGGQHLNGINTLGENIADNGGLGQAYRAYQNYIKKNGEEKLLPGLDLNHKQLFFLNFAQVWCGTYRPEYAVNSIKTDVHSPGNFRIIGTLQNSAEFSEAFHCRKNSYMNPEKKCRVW
enzyme and uptake assay panel targets (Table 36) (Homo sapiens, UniProt P35354), sequence (P35354 18-604): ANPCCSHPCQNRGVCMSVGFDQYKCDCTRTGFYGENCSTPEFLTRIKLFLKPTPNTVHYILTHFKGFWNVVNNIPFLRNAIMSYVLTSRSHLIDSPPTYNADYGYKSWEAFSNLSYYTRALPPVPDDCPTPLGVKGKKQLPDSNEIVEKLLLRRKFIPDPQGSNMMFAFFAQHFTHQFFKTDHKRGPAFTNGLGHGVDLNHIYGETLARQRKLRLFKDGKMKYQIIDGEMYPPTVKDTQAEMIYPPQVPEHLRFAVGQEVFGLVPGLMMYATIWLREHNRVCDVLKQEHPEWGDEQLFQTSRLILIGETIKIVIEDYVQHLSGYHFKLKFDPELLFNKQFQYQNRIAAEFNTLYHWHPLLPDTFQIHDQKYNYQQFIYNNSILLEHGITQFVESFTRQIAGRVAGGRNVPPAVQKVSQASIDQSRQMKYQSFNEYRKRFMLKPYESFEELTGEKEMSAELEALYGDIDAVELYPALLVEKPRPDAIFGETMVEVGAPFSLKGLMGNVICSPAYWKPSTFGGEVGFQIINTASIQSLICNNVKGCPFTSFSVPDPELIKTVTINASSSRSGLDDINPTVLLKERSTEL
enzyme and uptake assay panel targets (Table 36) (Homo sapiens, UniProt P03956), sequence (P03956 100-469): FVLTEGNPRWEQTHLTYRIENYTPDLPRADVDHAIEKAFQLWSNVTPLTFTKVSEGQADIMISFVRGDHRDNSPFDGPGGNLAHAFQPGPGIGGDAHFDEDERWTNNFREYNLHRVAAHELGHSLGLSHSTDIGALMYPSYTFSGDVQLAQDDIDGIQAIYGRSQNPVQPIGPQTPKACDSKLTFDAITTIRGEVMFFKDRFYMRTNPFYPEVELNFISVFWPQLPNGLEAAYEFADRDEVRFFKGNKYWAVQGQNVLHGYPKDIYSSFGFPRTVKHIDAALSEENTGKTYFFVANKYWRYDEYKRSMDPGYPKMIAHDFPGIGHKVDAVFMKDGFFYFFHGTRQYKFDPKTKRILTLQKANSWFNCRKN
enzyme and uptake assay panel targets (Table 36) (Homo sapiens, UniProt P14780), sequence (P14780 94-707): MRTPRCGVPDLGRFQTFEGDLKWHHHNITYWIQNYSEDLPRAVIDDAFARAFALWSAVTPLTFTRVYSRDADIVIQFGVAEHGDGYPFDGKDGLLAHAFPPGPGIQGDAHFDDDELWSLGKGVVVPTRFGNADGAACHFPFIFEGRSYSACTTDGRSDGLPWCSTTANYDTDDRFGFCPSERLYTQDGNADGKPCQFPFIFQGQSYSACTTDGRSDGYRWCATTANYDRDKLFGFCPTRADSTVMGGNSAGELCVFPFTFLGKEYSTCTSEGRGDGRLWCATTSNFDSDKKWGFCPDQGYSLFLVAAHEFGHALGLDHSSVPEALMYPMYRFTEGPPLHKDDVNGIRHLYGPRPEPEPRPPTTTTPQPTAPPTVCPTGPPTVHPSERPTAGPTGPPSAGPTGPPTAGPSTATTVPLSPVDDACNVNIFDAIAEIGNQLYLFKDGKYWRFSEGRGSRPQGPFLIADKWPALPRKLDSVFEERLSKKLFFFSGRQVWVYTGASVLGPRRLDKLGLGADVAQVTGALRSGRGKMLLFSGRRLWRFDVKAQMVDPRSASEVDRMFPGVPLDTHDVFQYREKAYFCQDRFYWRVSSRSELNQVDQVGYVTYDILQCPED
enzyme and uptake assay panel targets (Table 36) (Homo sapiens, UniProt P56817), sequence (P56817 46-501): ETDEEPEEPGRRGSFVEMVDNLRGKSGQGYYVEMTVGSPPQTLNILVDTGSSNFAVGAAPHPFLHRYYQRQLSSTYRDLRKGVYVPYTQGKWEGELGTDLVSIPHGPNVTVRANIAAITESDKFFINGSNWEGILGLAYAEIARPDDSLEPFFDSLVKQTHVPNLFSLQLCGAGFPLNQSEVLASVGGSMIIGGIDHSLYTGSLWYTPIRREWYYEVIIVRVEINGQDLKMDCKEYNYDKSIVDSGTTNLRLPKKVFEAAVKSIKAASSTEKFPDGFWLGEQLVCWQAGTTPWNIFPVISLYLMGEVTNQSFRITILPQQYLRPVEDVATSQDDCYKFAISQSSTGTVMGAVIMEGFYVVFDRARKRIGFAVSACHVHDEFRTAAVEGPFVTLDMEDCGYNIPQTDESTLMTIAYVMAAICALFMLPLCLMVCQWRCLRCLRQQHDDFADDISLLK
5-HT2B (h), sequence (P41595 whole entry): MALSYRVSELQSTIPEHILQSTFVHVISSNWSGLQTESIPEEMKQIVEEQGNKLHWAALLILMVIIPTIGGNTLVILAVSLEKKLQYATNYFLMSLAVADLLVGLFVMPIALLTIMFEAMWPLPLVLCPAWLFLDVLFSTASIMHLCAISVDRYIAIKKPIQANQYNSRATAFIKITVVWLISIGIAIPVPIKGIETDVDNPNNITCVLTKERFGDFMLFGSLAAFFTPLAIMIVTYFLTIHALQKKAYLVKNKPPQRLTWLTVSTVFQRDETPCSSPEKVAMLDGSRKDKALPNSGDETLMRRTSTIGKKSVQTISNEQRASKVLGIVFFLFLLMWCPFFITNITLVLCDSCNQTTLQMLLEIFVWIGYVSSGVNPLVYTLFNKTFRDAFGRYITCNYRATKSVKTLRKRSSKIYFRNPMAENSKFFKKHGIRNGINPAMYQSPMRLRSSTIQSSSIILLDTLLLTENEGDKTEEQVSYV
MAO-A, sequence (P21396 whole entry): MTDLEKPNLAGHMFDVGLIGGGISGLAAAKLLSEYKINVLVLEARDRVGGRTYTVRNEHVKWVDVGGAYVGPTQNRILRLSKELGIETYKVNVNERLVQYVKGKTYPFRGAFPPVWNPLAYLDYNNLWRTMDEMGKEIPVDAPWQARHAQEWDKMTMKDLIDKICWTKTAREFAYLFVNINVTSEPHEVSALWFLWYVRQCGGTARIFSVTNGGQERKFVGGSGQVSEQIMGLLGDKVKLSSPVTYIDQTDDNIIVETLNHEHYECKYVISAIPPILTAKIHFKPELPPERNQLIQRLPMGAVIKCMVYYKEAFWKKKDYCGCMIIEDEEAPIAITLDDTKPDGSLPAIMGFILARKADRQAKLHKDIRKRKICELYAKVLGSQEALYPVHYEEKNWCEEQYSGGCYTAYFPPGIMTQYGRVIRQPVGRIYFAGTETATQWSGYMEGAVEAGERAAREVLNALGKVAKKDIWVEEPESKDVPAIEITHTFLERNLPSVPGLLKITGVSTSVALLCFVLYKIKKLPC
enzyme and uptake assay panel targets (Table 36) (Homo sapiens, UniProt P23219), sequence (P23219 24-599): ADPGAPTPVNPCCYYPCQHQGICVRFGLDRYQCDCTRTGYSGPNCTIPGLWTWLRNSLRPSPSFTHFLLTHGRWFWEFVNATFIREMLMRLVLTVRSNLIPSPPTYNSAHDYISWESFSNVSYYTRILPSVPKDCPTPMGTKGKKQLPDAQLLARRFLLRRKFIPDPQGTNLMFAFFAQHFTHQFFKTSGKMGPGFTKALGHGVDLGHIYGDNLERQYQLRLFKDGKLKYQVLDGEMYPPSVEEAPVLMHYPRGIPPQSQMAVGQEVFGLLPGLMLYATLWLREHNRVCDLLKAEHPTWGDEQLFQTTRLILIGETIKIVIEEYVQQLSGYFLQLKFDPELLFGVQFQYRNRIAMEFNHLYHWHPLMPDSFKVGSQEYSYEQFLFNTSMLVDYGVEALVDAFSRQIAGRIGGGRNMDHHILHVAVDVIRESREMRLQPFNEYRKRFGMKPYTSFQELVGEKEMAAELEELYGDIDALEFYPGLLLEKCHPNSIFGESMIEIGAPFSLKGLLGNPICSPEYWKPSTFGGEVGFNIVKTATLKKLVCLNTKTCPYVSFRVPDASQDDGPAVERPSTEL
enzyme and uptake assay panel targets (Table 36) (Homo sapiens, UniProt P28482), sequence (P28482 whole entry): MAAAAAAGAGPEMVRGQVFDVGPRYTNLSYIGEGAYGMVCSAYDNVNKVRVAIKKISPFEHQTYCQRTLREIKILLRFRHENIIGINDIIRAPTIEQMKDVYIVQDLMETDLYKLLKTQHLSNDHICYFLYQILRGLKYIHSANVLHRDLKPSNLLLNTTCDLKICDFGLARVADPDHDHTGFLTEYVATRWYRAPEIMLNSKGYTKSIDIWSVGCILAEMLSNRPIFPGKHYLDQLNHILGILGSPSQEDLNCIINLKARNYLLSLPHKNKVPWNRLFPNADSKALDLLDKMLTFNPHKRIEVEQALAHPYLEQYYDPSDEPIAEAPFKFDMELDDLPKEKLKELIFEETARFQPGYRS

[2H]C([2H])([2H])C(O)(c1nc2ccc(Cl)cc2cc1N)C([2H])([2H])[2H] [Compound I-1]
inhibition at 10 µM (PR (h); [11]): 58.7% | inhibition at 10 µM (PR (h); [12]): 63.1% | inhibition at 10 µM (PR (h); [13]): 60.9% | inhibition at 10 µM (MAO-A; [11]): 66.4% | inhibition at 10 µM (MAO-A; [12]): 70.7% | inhibition at 10 µM (MAO-A; [13]): 68.5% | % inhibition of Control Values 1st [1]: 4.5% | % inhibition of Control Values 2nd [1]: 4.4% | % inhibition of Control Values Mean [1]: 4.4% | % inhibition of Control Values 1st [2]: 0.3% | % inhibition of Control Values 2nd [2]: 3.0% | % inhibition of Control Values Mean [2]: 1.7% | % inhibition of Control Values 1st [3]: 12.8% | % inhibition of Control Values 2nd [3]: 3.0% | % inhibition of Control Values Mean [3]: 7.9% | % inhibition of Control Values 1st [4]: −6.3% | % inhibition of Control Values 2nd [4]: −1.3% | % inhibition of Control Values Mean [4]: −3.8% | % inhibition of Control Values 1st [5]: −8.6% | % inhibition of Control Values 2nd [5]: −2.9% | % inhibition of Control Values Mean [5]: −5.7% | % inhibition of Control Values 1st [6]: 5.2% | % inhibition of Control Values 2nd [6]: −0.4% | % inhibition of Control Values Mean [6]: 2.4% | % inhibition of Control Values 1st [7]: 16.6% | % inhibition of Control Values 2nd [7]: 4.8% | % inhibition of Control Values Mean [7]: 10.7% | % inhibition of Control Values 1st [8]: −4.1% | % inhibition of Control Values 2nd [8]: −5.7% | % inhibition of Control Values Mean [8]: −4.9% | % inhibition of Control Values 1st [9]: 45.3% | % inhibition of Control Values 2nd [9]: 10.7% | % inhibition of Control Values Mean [9]: 28.0% | % inhibition of Control Values 1st [10]: 20.1% | % inhibition of Control Values 2nd [10]: −2.6% | % inhibition of Control Values Mean [10]: 8.8% | inhibition at 10 µM (5-HT2B (h); [11]): 60.8% | inhibition at 10 µM (5-HT2B (h); [12]): 64.2% | inhibition at 10 µM (5-HT2B (h); [13]): 62.5%

CC(C)(O)c1nc2ccc(Cl)cc2cc1N [NS2, 2-(3-amino-6-chloroquinolin-2-yl)propan-2-ol]
metabolite profile (rat hepatocytes; NS2, 120 min, rat hepatocytes): metabolized to M1, M7, and M8, with some unchanged NS2 remaining | Peak Areas Rat (rat hepatocytes; rat, 120 min, 3 μM): 3.14E+08 | metabolite profile (human hepatocytes; NS2, 120 min, human hepatocytes): metabolized to M1, M7, M8, and a low amount of M9, with some unchanged NS2 remaining; also recorded: a mono-oxidation metabolite (M), two oxidation+glucuronidation metabolites (M7 and M9), and a glucuronidation metabolite (M) | Peak Areas Human (human hepatocytes; human, 120 min, 3 μM): 4.41E+08 | metabolite profile (monkey hepatocytes; NS2, 120 min, monkey hepatocytes): metabolized to M1, M3, M4, M7, M8, and a low amount of M9, with some unchanged NS2 remaining; also recorded: a mono-oxidation metabolite (M), four oxidation+glucuronidation metabolites (M3, M4, M7, and M9), and a glucuronidation metabolite (M) | Peak Areas Cyno Monkey (monkey hepatocytes; cynomolgus monkey, 120 min, 3 μM): 1.74E+08

From patent publication US12240816B2, “Deuterated compounds and uses thereof” (Aldeyra Therapeutics, Inc., priority 2015, dated 2025)
